The target in one data set is T1, Human MAO-B (Homo sapiens, UniProt P27338).
T1 construct: purchased Sigma-Aldrich
T1 sequence (P27338 1-520): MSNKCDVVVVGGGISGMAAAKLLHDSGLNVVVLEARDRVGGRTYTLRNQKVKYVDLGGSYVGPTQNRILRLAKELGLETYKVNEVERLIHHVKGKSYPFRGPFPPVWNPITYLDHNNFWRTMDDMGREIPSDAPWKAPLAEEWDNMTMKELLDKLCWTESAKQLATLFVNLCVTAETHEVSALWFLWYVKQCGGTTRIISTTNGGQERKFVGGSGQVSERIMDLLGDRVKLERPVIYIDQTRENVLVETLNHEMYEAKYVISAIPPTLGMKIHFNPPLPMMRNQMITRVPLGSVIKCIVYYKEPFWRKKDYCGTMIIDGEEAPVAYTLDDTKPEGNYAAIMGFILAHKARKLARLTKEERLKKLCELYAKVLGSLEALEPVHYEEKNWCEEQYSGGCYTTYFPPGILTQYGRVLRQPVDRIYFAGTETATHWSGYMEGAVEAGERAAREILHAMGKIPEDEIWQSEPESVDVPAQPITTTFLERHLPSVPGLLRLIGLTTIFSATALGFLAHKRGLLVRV
Briefly: Determination of human MAO-B inhibitory activity (Monoamine Oxidase Assay Kit, fluorescence). Format: biochemical. The settings on record: for inhibition at 1 µM: compound at 1 μM, read-out: Inhibitory rate (%) 1 μM; for inhibition at 10 µM: compound at 10 μM, read-out: Inhibitory rate (%) 10 μM.

Data set [1] in a line: Calculation of pFe3+ by HySS software from pKa and logβ values. The settings on record: DMSO:KCl (0.1 M) = 2:3 (V/V); calculated by HySS from pKa1, pKa2, logβ1-3. Format: physicochemical. Here is the method: The values of pFe^3+ were calculated by HySS software according to the results of pKa1, pKa2, logβ1, logβ2, and logβ3 determined by the above methods. The basic parameters were set as follows: FeOH = –2.563, Fe(OH)2 = –6.205, Fe(OH)3 = –15.1, Fe2(OH)2 = –2.843, Fe3(OH)4 = –6.059, Fe(OH)4 = –21.883[23].

The nature of data set [2]: pKa determination by automatic spectrophotometric titration. The settings on record: DMSO/0.1 M KCl 2:3 (V/V) solution, DMSO:KCl (0.1 M) = 2:3 (V/V), 25 °C. Format: physicochemical. The method, then:
(§1) The automatic titration system used in the test consisted of an automatic titrator, a luminescence 759 s UV-Vis spectrophotometer, and a pH Meter (Mettler Toledo InLab Expert PRO/Mettler Toledo InLab Science). All instruments are controlled by a computer program.
(§2) The testing solution (2:3 DMSO/KCl (0.1 M), V/V) was maintained at 25 °C using a TP-3A temperature controller. The cuvette is mounted on a spectrophotometer. The E0 and s of the pH Meter were calibrated by three standard solutions (pH = 6.86, 9.18, 4.00). KCl solution (0.1 M) was used to maintain the ionic strength. For the Fe(III) affinity evaluation, the ratio of compounds to iron ion was kept at 1.1:1 (n/n) when Logβ1 was measured; the ratio of compounds to iron ion was kept at 5:1 (n/n) when Logβ2 and Logβ3 were tested.
The titration was performed in a 50 mm path length cuvette. 45 ml KCl (0.1 M) solution, 40 μL of saturated EDTA solution were added to the cuvette. The pH value of the solution was acidified to 2.0 with hydrochloric acid (1.5 M). Then 20 μL of test compound DMSO solution (30 μM/L) was added and stirred vigorously. By adding KOH solution (0.1 M) from the automatic buret, the pH value of the solution was increased by 0.1. […] Adding KOH solution (0.1 M) and repeated the automatic process until the specified endpoint of pH value was reached. All data were recorded internally by the Visual Basic program, and the test results are analysed by the HypSpec2014 program.

Data set [3] can be described thus: Determination of iron(III) affinity (Logβ1, Logβ2, Logβ3) by spectrophotometric titration. Format: physicochemical. Conditions: DMSO:KCl (0.1 M) = 2:3 (V/V), 25 °C; for Logβ1: compound:iron 1.1:1; for Logβ2 / Logβ3: compound:iron 5:1. The method, then:
as §1, §2
A 45 ml KCl (0.1 M) solution was added to the cuvette (50 mm) and the pH value was acidified to 2.1. Then 30 μM DMSO solution of the testing compound and 60 μL acidic solution of FeCl3 (15 mM) were added separately, and the mixture was vigorously stirred. After the absorbance value is stabilised, a certain amount of HCl solution (4 M) was added by the automatic buret to reduce the pH of the solution by 0.1. After the system was equilibrated, the spectral scan was performed once after 20 min. This protocol was repeated until the specified endpoint of the pH value was reached. All data was recorded with the internal Visual Basic program, HypSpec2014 program was utilised for the data analysis.
Similarly, 45 ml KCl (0.1 M) solution was added to the cuvette (50 mm) and the pH value was acidified to 2.1. Then 30 μM DMSO solution of the testing compound and 60 μL acidic solution of FeCl3 (15 mM) were added separately, and the mixture was vigorously stirred. After the absorbance value is stabilised, a certain amount of KOH solution (0.1 M) was added by the automatic buret to increase the pH of the solution by 0.1. After the system was equilibrated, the spectral scan was performed once after 5 min. This protocol was repeated until the specified endpoint of the pH value was reached. All data were recorded with the internal Visual Basic program, HypSpec2014 program was utilised for the data analysis[5]^,[21]^,[22].

Read-outs that look alike come from different tables or passages of the source. Some results are limits rather than exact numbers.

Procedure for Human MAO-B: Human MAO-B (5 mg/mL) was purchased from Sigma-Aldrich and was pre-aliquoted and stored at -70 °C. 200 μL enzymatic reactions were diluted in 2 ml microcentrifuge tubes by potassium phosphate buffer (Assay Buffer, pH 7.4) which have been provided by Sigma-Aldrich Monoamine Oxidase Assay Kit. The final volumes of the reactions were 100 μL and contained 45 μL MAO-B (0.0075 mg/mL), included 5 μL different concentrations of the testing inhibitors (10 μM, 1 μM), and 50 μL Master Reaction, p-Tyramine, HRP Enzyme and Dye Reagent. Stock solutions of the compounds were prepared in DMSO.

Turning to `Cc1cc(=O)c(O)c(CO)n1CCn1cc(COc2ccc3ccc(=O)oc3c2)nn1` [Compound 27a, 3-hydroxy-2-(hydroxymethyl)-6-methyl-1–(2-(4-(((2-oxo-2H-chromen-7-yl)oxy)methyl)-1H-1,2,3-triazol-1-yl)ethyl)pyridin-4(1H)-one], the melting point (as a rule, the temperature, or range, at which the solid turns liquid) lay in the range of 212 to 215 °C. In addition, on Human MAO-B, the inhibition at 1 µM is greater than 20% and the inhibition at 10 µM worked out at 96.2%. Besides, in data set [1], the “pFe3+” value is 18.9. In data set [2] (read-out: pKa1), the pKa came out at 2.7. Further, the pKa in data set [2] (read-out: pKa2) worked out at 9.2. In data set [3], this molecule gave a Logβ1 of 13.8, a Logβ2 of 24.0 and a Logβ3 of 33.7.
For the molecule `Cc1cc(=O)c(O)c(CO)n1CCCn1cc(COc2ccc3ccc(=O)oc3c2)nn1` [Compound 27b, 3-hydroxy-2-(hydroxymethyl)-6-methyl-1–(3-(4-(((2-oxo-2H-chromen-7-yl)oxy)methyl)-1H-1,2,3-triazol-1-yl)propyl)pyridin-4(1H)-one], the IC50 – broadly, the concentration at which inhibition is half-maximal – against Human MAO-B was found to be 680 nM. In addition, in data set [1], the “pFe3+” value is reported as 19.8. Also, the pKa in data set [2] (read-out: pKa1) was 2.8. The pKa in data set [2] (read-out: pKa2) is 8.8. Moreover, in data set [3], the Logβ1 was found to be 12.9, the Logβ2 stood at 25.5 and the Logβ3 was 33.5.
Take `Cc1cc(=O)c(O)c(C)n1CCn1cc(COc2ccc3ccc(=O)oc3c2)nn1` [Compound 27c, 3-hydroxy-2,6-dimethyl-1–(2-(4-(((2-oxo-2H-chromen-7-yl)oxy)methyl)-1H-1,2,3-triazol-1-yl)ethyl)pyridin-4(1H)-one]: on Human MAO-B, the inhibition at 1 µM was determined as 1.84% and the inhibition at 10 µM stood at 91%. In addition, the “pFe3+” value in data set [1] is listed as 18.0. Moreover, the pKa in data set [2] (read-out: pKa1) amounted to 3.3. Further, the pKa in data set [2] (read-out: pKa2) stood at 9.7. In data set [3], this molecule displayed a Logβ1 of 14.9, a Logβ2 of 26.0 and a Logβ3 of 34.1.
With `Cc1cc(=O)c(O)c(C)n1CCCn1cc(COc2ccc3ccc(=O)oc3c2)nn1` [Compound 27d, 3-hydroxy-2,6-dimethyl-1–(3-(4-(((2-oxo-2H-chromen-7-yl)oxy)methyl)-1H-1,2,3-triazol-1-yl)propyl)pyridin-4(1H)-one], the melting point was 263 to 265 °C. Further, at Human MAO-B, the inhibition at 1 µM stood at 9.67% and the inhibition at 10 µM is 98.3%. Moreover, in data set [1], the “pFe3+” value is 17.6. In data set [2] (read-out: pKa1), the pKa stood at 3.4. Also, the pKa in data set [2] (read-out: pKa2) was found to be 10. In data set [3], this molecule came in with a Logβ1 of 14.9, a Logβ2 of 26.3 and a Logβ3 of 34.8.
`CCc1c(O)c(=O)ccn1CCCn1cc(COc2ccc3ccc(=O)oc3c2)nn1` [Compound 27e, 2-ethyl-3-hydroxy-1–(3-(4-(((2-oxo-2H-chromen-7-yl)oxy)methyl)-1H-1,2,3-triazol-1-yl)propyl)pyridin-4(1H)-one]: on Human MAO-B, the inhibition at 1 µM was found to be 1.23% and the inhibition at 10 µM turned out to be 95.7%. Also, the “pFe3+” value in data set [1] is reported as 17.1. In data set [2] (read-out: pKa1), the pKa worked out at 3.2. Further, the pKa in data set [2] (read-out: pKa2) is 9.8. Moreover, in data set [3], the Logβ1 is 14.7, the Logβ2 turned out to be 26.0 and the Logβ3 came to 33.2.
In the case of `CCc1c(O)c(=O)ccn1CCn1cc(COc2cc(=O)oc3ccccc23)nn1` [Compound 27f, 2-ethyl-3-hydroxy-1–(2-(4-(((2-oxo-2H-chromen-4-yl)oxy)methyl)-1H-1,2,3-triazol-1-yl)ethyl)pyridin-4(1H)-one], the melting point lay in the range of 253 to 256 °C. Moreover, at Human MAO-B, the inhibition at 1 µM is greater than 30% and the inhibition at 10 µM came to 93.3%. In data set [1], the “pFe3+” value was 16.7. Further, the pKa in data set [2] (read-out: pKa1) is 3.4. For the same molecule, the pKa in data set [2] (read-out: pKa2) came out at 9.8. In data set [3], this molecule gave a Logβ1 of 14.9, a Logβ2 of 25.7 and a Logβ3 of 32.8.
Take `CCc1c(O)c(=O)ccn1CCCn1cc(COc2cc(=O)oc3ccccc23)nn1` [Compound 27g, 2-ethyl-3-hydroxy-1–(3-(4-(((2-oxo-2H-chromen-4-yl)oxy)methyl)-1H-1,2,3-triazol-1-yl)propyl)pyridin-4(1H)-one]: the melting point is 195 to 198 °C. Besides, at Human MAO-B, the inhibition at 1 µM was greater than 20% and the inhibition at 10 µM was determined as 89.5%. In addition, in data set [1], the “pFe3+” value is 17.1. Also, the pKa in data set [2] (read-out: pKa1) was 3.2. The pKa in data set [2] (read-out: pKa2) worked out at 9.7. Also, in data set [3], the Logβ1 is reported as 14.6, the Logβ2 came out at 25.6 and the Logβ3 turned out to be 33.1.
Take `Cc1cc(=O)c(O)c(CO)n1CCn1cc(COc2cc(=O)oc3ccccc23)nn1` [Compound 27h, 3-hydroxy-2-(hydroxymethyl)-6-methyl-1–(2-(4-(((2-oxo-2H-chromen-4-yl)oxy)methyl)-1H-1,2,3-triazol-1-yl)ethyl)pyridin-4(1H)-one]: the melting point was 142 to 148 °C. Further, at Human MAO-B, the inhibition at 1 µM stood at 13.2% and the inhibition at 10 µM stood at 85.7%. Moreover, in data set [1], the “pFe3+” value is reported as 18.7. Further, in data set [2] (read-out: pKa1), the pKa is 3. For the same molecule, in data set [2] (read-out: pKa2), the pKa turned out to be 9.1. Also, in data set [3], the Logβ1 turned out to be 13.3, the Logβ2 amounted to 24.8 and the Logβ3 worked out at 33.2.
Turning to `CCc1c(O)c(=O)ccn1CCn1cc(COc2cc3ccccc3oc2=O)nn1` [Compound 27i, 2-ethyl-3-hydroxy-1–(2-(4-(((2-oxo-2H-chromen-3-yl)oxy)methyl)-1H-1,2,3-triazol-1-yl)ethyl)pyridin-4(1H)-one], the melting point was in the range of 258 to 261 °C. On Human MAO-B, the inhibition at 1 µM was greater than 30% and the inhibition at 10 µM is 94%. Further, in data set [1], the “pFe3+” value was 17.0. Further, the pKa in data set [2] (read-out: pKa1) was 2.9. In data set [2] (read-out: pKa2), the pKa amounted to 9.6. In data set [3], this molecule yielded a Logβ1 of 14.2, a Logβ2 of 25.4 and a Logβ3 of 32.8.
With `Cc1cc(=O)c(O)c(CO)n1CCCn1cc(COc2cc3ccccc3oc2=O)nn1` [Compound 27k, 3-hydroxy-2-(hydroxymethyl)-6-methyl-1–(3-(4-(((2-oxo-2H-chromen-3-yl)oxy)methyl)-1H-1,2,3-triazol-1-yl)propyl)pyridin-4(1H)-one], on Human MAO-B, the inhibition at 1 µM is greater than 30% and the inhibition at 10 µM came to 90.5%. In addition, the “pFe3+” value in data set [1] was 18.4. In addition, the pKa in data set [2] (read-out: pKa1) came to 3.3. For the same molecule, the pKa in data set [2] (read-out: pKa2) stood at 9.1. In data set [3], this molecule gave a Logβ1 of 13.6, a Logβ2 of 24.5 and a Logβ3 of 33.0.

Source of the values: paper PMC6713216, “Dual-target anti-Alzheimer’s disease agents with both iron ion chelating and monoamine oxidase-B inhibitory activity” (Journal of Enzyme Inhibition and Medicinal Chemistry, 2019).
